Data as given in patent US20250177363A1, “SUBSTITUTED IMIDAZOPYRIDINYL COMPOUNDS USEFUL AS INHIBITORS OF TLR9” (Bristol-Myers Squibb Company, priority 2022, published 2025).

Legend:
Format in all cases: cell-based
human TLR9 = molecular target: T1, human TLR9 (Homo sapiens, UniProt Q9NR96); assay: TLR9 inhibition reporter assay (HEK-Blue, SEAP); details: HEK-Blue cells overexpressing human TLR9, ligand ODN2006 200 nM, 22 hour incubation
T1 construct: host or cells: HEK-Blue cells
T1 sequence (Q9NR96 26-1032): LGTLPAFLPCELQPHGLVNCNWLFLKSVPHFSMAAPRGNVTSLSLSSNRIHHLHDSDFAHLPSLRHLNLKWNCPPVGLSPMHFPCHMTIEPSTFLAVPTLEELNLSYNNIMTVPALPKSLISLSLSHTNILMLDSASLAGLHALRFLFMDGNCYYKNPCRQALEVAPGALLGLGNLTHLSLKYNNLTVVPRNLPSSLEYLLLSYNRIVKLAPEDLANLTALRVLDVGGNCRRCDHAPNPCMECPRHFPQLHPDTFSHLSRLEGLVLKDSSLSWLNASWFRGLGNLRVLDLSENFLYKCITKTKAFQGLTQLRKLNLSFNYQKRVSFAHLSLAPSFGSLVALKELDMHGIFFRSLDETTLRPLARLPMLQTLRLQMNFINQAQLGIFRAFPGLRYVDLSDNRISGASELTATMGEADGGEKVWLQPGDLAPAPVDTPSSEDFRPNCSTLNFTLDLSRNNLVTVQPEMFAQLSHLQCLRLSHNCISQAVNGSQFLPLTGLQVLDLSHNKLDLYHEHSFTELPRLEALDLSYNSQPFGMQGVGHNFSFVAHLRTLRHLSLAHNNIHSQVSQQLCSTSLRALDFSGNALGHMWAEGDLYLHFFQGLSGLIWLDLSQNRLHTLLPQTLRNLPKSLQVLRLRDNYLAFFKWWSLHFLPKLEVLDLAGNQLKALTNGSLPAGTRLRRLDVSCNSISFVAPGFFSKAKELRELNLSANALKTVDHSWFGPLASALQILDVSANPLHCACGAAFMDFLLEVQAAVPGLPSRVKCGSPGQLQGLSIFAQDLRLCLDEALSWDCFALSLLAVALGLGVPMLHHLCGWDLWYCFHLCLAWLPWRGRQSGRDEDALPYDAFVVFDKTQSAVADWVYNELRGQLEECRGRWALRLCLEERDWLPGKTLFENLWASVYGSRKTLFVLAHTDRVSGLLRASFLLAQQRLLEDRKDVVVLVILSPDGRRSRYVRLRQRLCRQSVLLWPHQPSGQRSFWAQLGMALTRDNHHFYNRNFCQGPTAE
In short: (§1)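 HEK-Blue cells expressing human TLR7, TLR8 or TLR9 with NF-κB/AP-1-driven SEAP reporter; compounds 0.85 nM–50 μM, pre-treated 60 min. Stimulation: gardiquimod 2.5 μM (TLR7), R848 14.25 μM (TLR8), ODN2006 200 nM (TLR9); SEAP read after 22 h at 37 °C. Percent inhibition normalized between agonist+DMSO and known-inhibitor wells.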

human TLR8 = molecular target: T2, human TLR8 (Homo sapiens, UniProt Q9NR97); assay: TLR8 inhibition reporter assay (HEK-Blue, SEAP); details: HEK-Blue cells overexpressing human TLR8, ligand R848 14.25 μM, 22 hour incubation
T2 construct: host or cells: HEK-Blue cells
T2 sequence (Q9NR97 27-1041): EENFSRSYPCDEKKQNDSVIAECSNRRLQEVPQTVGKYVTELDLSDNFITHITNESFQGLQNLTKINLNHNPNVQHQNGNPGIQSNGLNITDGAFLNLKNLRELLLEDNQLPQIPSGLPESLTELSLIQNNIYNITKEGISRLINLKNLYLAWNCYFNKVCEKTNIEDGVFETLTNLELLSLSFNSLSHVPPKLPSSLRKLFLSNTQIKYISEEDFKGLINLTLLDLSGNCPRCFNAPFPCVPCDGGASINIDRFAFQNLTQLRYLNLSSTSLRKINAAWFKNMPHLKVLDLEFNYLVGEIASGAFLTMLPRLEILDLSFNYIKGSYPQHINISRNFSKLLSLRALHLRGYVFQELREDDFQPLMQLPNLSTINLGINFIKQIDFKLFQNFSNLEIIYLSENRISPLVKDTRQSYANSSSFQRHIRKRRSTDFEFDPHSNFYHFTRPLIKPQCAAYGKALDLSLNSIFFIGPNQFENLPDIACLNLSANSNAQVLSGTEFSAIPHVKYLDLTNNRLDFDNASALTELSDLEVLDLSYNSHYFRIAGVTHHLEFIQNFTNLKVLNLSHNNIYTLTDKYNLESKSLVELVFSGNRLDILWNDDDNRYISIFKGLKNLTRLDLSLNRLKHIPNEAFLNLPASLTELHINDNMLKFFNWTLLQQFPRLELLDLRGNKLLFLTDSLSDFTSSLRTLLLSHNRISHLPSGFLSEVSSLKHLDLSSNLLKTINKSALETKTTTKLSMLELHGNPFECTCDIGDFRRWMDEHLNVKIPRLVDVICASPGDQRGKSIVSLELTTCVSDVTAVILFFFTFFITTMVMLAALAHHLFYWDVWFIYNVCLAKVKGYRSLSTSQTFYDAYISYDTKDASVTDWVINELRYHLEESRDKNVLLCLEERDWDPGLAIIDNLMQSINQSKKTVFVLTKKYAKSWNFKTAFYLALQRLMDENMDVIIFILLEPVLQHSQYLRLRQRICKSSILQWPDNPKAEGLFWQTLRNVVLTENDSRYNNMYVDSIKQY
In short: as §1

human TLR7 = molecular target: T3, human TLR7 (Homo sapiens, UniProt Q9NYK1); assay: TLR7 inhibition reporter assay (HEK-Blue, SEAP); details: HEK-Blue cells overexpressing human TLR7, ligand gardiquimod 2.5 μM, 22 hour incubation
T3 construct: host or cells: HEK-Blue cells
T3 sequence (Q9NYK1 27-1049): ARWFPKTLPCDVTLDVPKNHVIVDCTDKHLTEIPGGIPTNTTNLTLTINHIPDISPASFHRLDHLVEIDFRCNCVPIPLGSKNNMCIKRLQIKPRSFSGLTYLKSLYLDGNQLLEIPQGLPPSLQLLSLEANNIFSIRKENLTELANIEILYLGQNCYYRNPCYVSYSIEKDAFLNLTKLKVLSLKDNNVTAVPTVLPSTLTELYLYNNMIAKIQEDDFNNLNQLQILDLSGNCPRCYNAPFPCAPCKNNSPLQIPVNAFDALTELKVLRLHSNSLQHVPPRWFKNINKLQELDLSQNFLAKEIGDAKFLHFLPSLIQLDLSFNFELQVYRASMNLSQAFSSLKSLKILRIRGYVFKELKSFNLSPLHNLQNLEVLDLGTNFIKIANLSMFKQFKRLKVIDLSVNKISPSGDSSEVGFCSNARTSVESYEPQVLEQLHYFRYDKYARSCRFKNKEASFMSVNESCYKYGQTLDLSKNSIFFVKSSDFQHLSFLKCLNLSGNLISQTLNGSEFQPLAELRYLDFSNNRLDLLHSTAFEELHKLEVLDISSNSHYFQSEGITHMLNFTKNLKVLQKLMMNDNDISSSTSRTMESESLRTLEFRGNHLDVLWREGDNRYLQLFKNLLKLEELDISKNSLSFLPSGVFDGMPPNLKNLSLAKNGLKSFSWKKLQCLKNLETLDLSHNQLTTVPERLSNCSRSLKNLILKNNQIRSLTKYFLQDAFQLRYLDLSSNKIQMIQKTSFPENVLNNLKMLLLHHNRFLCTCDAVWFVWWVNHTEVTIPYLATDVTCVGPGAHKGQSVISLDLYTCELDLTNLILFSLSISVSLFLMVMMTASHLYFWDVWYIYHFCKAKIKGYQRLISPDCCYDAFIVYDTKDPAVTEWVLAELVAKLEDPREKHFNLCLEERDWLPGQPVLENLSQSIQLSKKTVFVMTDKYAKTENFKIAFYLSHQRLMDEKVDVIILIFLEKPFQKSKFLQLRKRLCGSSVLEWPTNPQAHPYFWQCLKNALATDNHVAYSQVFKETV
In short: as §1

SMILES: COc1cc(-c2nc3c(C)cc(C4CCN([C@H]5C[C@@H]6CN(CC7CC7)C[C@@H]6C5)CC4)nc3n2C)cn2ncnc12 [Example 43, 5-(1-((3aR,5s,6aS)-2-(cyclopropylmethyl)octahydrocyclopenta[c]pyrrol-5-yl)piperidin-4-yl)-2-(8-methoxy-[1,2,4]triazolo[1,5-a]pyridin-6-yl)-3,7-dimethyl-3H-imidazo[4,5-b]pyridine]
- IC50 (human TLR9): 52 nM
- IC50 (human TLR8): > 50000 nM
- IC50 (human TLR7): 250 nM

SMILES: COc1cc(-c2nc3c(C)cc(C4CCN([C@H]5C[C@@H]6CN(C7CCOCC7)C[C@@H]6C5)CC4)nc3n2C)cn2ncnc12 [Example 44, 2-(8-methoxy-[1,2,4]triazolo[1,5-a]pyridin-6-yl)-3,7-dimethyl-5-(1-((3aR,5s,6aS)-2-(tetrahydro-2H-pyran-4-yl)octahydrocyclopenta[c]pyrrol-5-yl)piperidin-4-yl)-3H-imidazo[4,5-b]pyridine]
- IC50 (human TLR9): 180 nM
- IC50 (human TLR8): > 50000 nM
- IC50 (human TLR7): 4500 nM

SMILES: COCCN1C[C@H]2C[C@H](N3CCC(c4cc(C)c5nc(-c6cc(OC)c7ncnn7c6)n(C)c5n4)CC3)C[C@H]2C1 [Example 46, 2-(8-methoxy-[1,2,4]triazolo[1,5-a]pyridin-6-yl)-5-(1-((3aR,5s,6aS)-2-(2-methoxyethyl)octahydrocyclopenta[c]pyrrol-5-yl)piperidin-4-yl)-3,7-dimethyl-3H-imidazo[4,5-b]pyridine]
- IC50 (human TLR9): 27 nM
- IC50 (human TLR8): > 50000 nM
- IC50 (human TLR7): 360 nM

SMILES: Cc1cc(-c2ccc(CN3CCC(N4CCOCC4)CC3)cc2)nc2c1nc(-c1ccc(S(C)(=O)=O)cc1)n2C1CC1 [Example 47, 4-(1-(4-(3-cyclopropyl-7-methyl-2-(4-(methylsulfonyl)phenyl)-3H-imidazo[4,5-b]pyridin-5-yl)benzyl)piperidin-4-yl)morpholine]
- IC50 (human TLR9): 290 nM
- IC50 (human TLR8): > 50000 nM
- IC50 (human TLR7): 15000 nM

SMILES: COc1ccc(-c2nc3ncc(-c4ccc(N5CCN(C(C)C)CC5)cc4)cc3n2C)cc1OC [Example 48, 2-(3,4-dimethoxyphenyl)-6-(4-(4-isopropylpiperazin-1-yl)phenyl)-1-methyl-1H-imidazo[4,5-b]pyridine]
- IC50 (human TLR9): 280 nM
- IC50 (human TLR8): 18000 nM
- IC50 (human TLR7): 1500 nM

SMILES: CC(C)N1CCN(c2ccc(-c3cnc4nc(-c5ccc(S(C)(=O)=O)cc5)n(C)c4c3)cc2)CC1 [Example 49, 6-(4-(4-isopropylpiperazin-1-yl)phenyl)-1-methyl-2-(4-(methylsulfonyl)phenyl)-1H-imidazo[4,5-b]pyridine]
- IC50 (human TLR9): 350 nM
- IC50 (human TLR8): 2700 nM
- IC50 (human TLR7): 4200 nM

SMILES: CC(C)N1CCN(c2ccc(-c3cnc4nc(-c5ccc(S(C)(=O)=O)cc5)n(C5CC5)c4c3)cc2)CC1 [Example 51, 1-cyclopropyl-6-(4-(4-isopropylpiperazin-1-yl)phenyl)-2-(4-(methylsulfonyl)phenyl)-1H-imidazo[4,5-b]pyridine]
- IC50 (human TLR9): 340 nM
- IC50 (human TLR8): 4200 nM
- IC50 (human TLR7): 2700 nM

SMILES: COc1ccc(-c2nc3ccc(-c4ccc(N5CCN(C(C)C)CC5)cc4)nc3n2C)cc1OC [Example 52, 2-(3,4-dimethoxyphenyl)-5-(4-(4-isopropylpiperazin-1-yl)phenyl)-3-methyl-3H-imidazo[4,5-b]pyridine]
- IC50 (human TLR9): 640 nM
- IC50 (human TLR8): > 50000 nM
- IC50 (human TLR7): 1200 nM

SMILES: CC(C)N1CCN(c2ccc(-c3ccc4nc(-c5ccc(S(C)(=O)=O)cc5)n(C)c4n3)cc2)CC1 [Example 53, 5-(4-(4-isopropylpiperazin-1-yl)phenyl)-3-methyl-2-(4-(methylsulfonyl)phenyl)-3H-imidazo[4,5-b]pyridine]
- IC50 (human TLR9): 930 nM
- IC50 (human TLR8): > 50000 nM
- IC50 (human TLR7): > 50000 nM

SMILES: CC(C)N1CCN(c2ccc(-c3ccc4nc(-c5ccc(S(C)(=O)=O)cc5)n(C5CC5)c4n3)cc2)CC1 [Example 54, 3-cyclopropyl-5-(4-(4-isopropylpiperazin-1-yl)phenyl)-2-(4-(methylsulfonyl)phenyl)-3H-imidazo[4,5-b]pyridine]
- IC50 (human TLR9): 760 nM
- IC50 (human TLR8): > 50000 nM
- IC50 (human TLR7): > 50000 nM

SMILES: COc1ccc(-c2nc3ccc(-c4ccc(N5CCN(C(C)C)CC5)cc4)nc3n2C2CC2)cc1OC [Example 55, 3-cyclopropyl-2-(3,4-dimethoxyphenyl)-5-(4-(4-isopropylpiperazin-1-yl)phenyl)-3H-imidazo[4,5-b]pyridine]
- IC50 (human TLR9): 1400 nM
- IC50 (human TLR8): > 50000 nM
- IC50 (human TLR7): 40000 nM

SMILES: CS(=O)(=O)c1ccc(-c2nc3ccc(-c4ccc(N5CCN(CCN6CCOCC6)CC5)cc4)nc3n2C2CC2)cc1 [Example 57, 4-(2-(4-(4-(3-cyclopropyl-2-(4-(methylsulfonyl)phenyl)-3H-imidazo[4,5-b]pyridin-5-yl)phenyl)piperazin-1-yl)ethyl)morpholine]
- IC50 (human TLR9): 3200 nM
- IC50 (human TLR8): > 50000 nM
- IC50 (human TLR7): > 50000 nM

SMILES: COc1ccc(-c2nc3c(C)cc(-c4ccc(N5CCC6(CC5)CN(C(C)C)C6)cc4)nc3n2C)cc1OC [Example 58, 2-(3,4-dimethoxyphenyl)-5-(4-(2-isopropyl-2,7-diazaspiro[3.5]nonan-7-yl)phenyl)-3,7-dimethyl-3H-imidazo[4,5-b]pyridine]
- IC50 (human TLR9): 540 nM
- IC50 (human TLR8): 15000 nM
- IC50 (human TLR7): 1600 nM
